Experiment [1] deals with E. faecalis ATCC 29212. Nature of the experiment: Broth microdilution MIC. The settings on record: for MIC: Enterococcus faecalis, ATCC29212, E. faecalis ATCC 29212. It is filed as cell-based, Enterococcus faecalis.
Experiment [2] relates to S. aureus ATCC 29213. Kind of experiment: Broth microdilution MIC. It is filed as cell-based. The settings on record: Staphylococcus aureus, ATCC29213, S. aureus ATCC 29213. (In broth dilution the organism is exposed to a series of concentrations in liquid medium.)
In another experiment the test system is S. aureus ATCC 12598. Kind of experiment: Broth microdilution MIC. Format: cell-based, Staphylococcus aureus. The settings on record: Staphylococcus aureus, ATCC12598, S. aureus ATCC 12598; substance alone; read-out: MIC.
The test system of experiment [3] is S. aureus ATCC BAA-1556 USA300. Kind of experiment: Broth microdilution MIC. Format: cell-based, Staphylococcus aureus. The settings on record: Staphylococcus aureus, S. aureus ATCC BAA-1556 USA300; substance alone.
The subject of experiment [4] is K. pneumoniae ATCC 700603. Kind of experiment: Broth microdilution MIC. The settings on record: for MIC: Klebsiella pneumoniae, ATCC700603, K. pneumoniae ATCC 700603, substance alone, read-out: MIC. It is filed as cell-based, Klebsiella pneumoniae.
In the next experiment the test system is A. baumannii ATCC 17978. Nature of the experiment: Broth microdilution MIC. Format: cell-based. Particulars: Acinetobacter baumannii, ATCC17978, substance alone.
The test system of experiment [5] is P. aeruginosa ATCC 27853. Kind of experiment: Broth microdilution MIC. It is filed as cell-based, Pseudomonas aeruginosa. The settings on record: for MIC: Pseudomonas aeruginosa, ATCC27853, P. aeruginosa ATCC 27853.
A further experiment has as its system S. enterica ATCC 14028. Kind of experiment: Broth microdilution MIC. It is filed as cell-based. The settings on record: Salmonella enterica, ATCC14028, substance alone.
Experiment [6] has as its system E. coli ATCC 25922. Nature of the experiment: Broth microdilution MIC. Format: cell-based. Particulars: Escherichia coli.
Experiment [7] has as its system CaCo-2 (ATCC HTB-37) colon–rectal cancer cell line. Nature of the experiment: MTT cytotoxicity assay on CaCo-2 cells. Format: cell-based, human. The settings on record: for IC50: Homo sapiens; for Percentage of cell growth, antibiotic / Percentage of cell growth, antibiotic + PB4 0.2 µM: CaCo-2. The protocol:
To fully assess the biological activity of the new molecules, they were tested at different concentrations on the CaCo-2 (ATCC HTB-37) colon–rectal cancer cell line. These human cancer cells were exposed to compound solutions ranging in concentration from 100 µM to 0.01 µM. As a reference compound for these assays, we used 5-Fluorouracil (5-FU), a pyrimidine analog from the antimetabolite family.
The MTT assay was also performed for the selected antibiotics to evaluate the effect of their combined treatment with PB4.
To evaluate the effect of the heteroaryl ethylene compounds and the antibiotics, an MTT ([3-(4,5-dimethylthiazol-2-yl)-2,5-diphenyltetrazolium bromide]) assay was performed as previously described. […] Both concentrations were also tested in combination with PB4 0.2 µM. All antibiotics were provided by Thermo Scientific^TM Oxoid^TM, Basingstoke, UK. Twenty-four hours after plating, the cells were treated with 20 μL of each solution. Untreated cells were used as controls. […] The IC50 values were calculated by nonlinear regression analysis using GraphPad Prism 6.0 software.
For orientation: Formazan colour is commonly taken as a measure of viable cells.

The next experiment concerns Gram-positive strains. Kind of experiment: Broth microdilution MIC, summary over Gram-positive strains. It is filed as cell-based.
For another experiment, the system named is Gram-negative bacteria. Kind of experiment: Broth microdilution MIC, summary over Gram-negative bacteria. Particulars: summary in text over Gram-negative bacteria. Format: cell-based.
For experiment [8], the system named is E. faecalis ATCC 29212. Also noted: method as in earlier work. The settings on record: quality control range, ref CLSI; cited from earlier work.
For experiment [9], the system named is S. aureus ATCC 29213. Also noted: method as in earlier work. The settings on record: quality control range, ref CLSI; cited from earlier work.
Experiment [10] has as its system P. aeruginosa ATCC 27853. Also noted: method as in earlier work. Particulars: quality control range, ref CLSI; cited from earlier work.
The test system of experiment [11] is E. coli ATCC 25922. Also noted: method as in earlier work. Particulars: quality control range, ref CLSI; cited from earlier work.
The mark [12] stands for this setting: ATCC25922, substance alone, read-out: MIC.
The mark [13] stands for this setting: quality control strain, technical positive control, read-out: MIC (quality control).

In brackets after ≈: the same amount, converted by molar mass. Several values for one entry are separate records, joined by “and”; a condition that tells them apart may be missing. Equal values may be shown once. Read-outs that look alike come from different tables or passages of the source.

By MIC is commonly meant the least concentration at which growth counts as inhibited. The IC50 is the concentration that inhibits the measured activity by half. In the case of `C[n+]1c(/C=C/c2ccc(-c3cccs3)s2)cccc1/C=C/c1ccc(-c2cccs2)s1` [GC-VI-70], the MIC in the experiment with E. faecalis ATCC 29212 [1] (substance alone, read-out: MIC) is 2 µg/mL and 3.32 µM; in the experiment on S. aureus ATCC 29213 [2] (substance alone, read-out: MIC) it was 16 µg/mL and 26.6 µM; in the experiment on S. aureus ATCC 12598, 16 µg/mL and 26.6 µM; in experiment [3], 4 µg/mL and 6.65 µM; in [4], > 128 µg/mL and > 213 µM; against A. baumannii ATCC 17978 it was 32 µg/mL and 53.2 µM. The MIC was > 128 µg/mL and > 213 µM in the experiment with P. aeruginosa ATCC 27853 [5] (substance alone, read-out: MIC); > 128 µg/mL and > 213 µM in the experiment with S. enterica ATCC 14028; 128 µg/mL and 213 µM in the experiment on E. coli ATCC 25922 [6] (setting [12]); 2 to 16 µg/mL in the experiment with Gram-positive strains. The IC50 in experiment [7] (Caco-2, 24 h, CaCo-2 cell line, MTT, 24 h of treatment, read-out: IC50 at 24 h) was 940 nM; in [7] (Caco-2, 48 h, CaCo-2 cell line, MTT, 48 h of treatment, read-out: IC50 at 48 h), 3760 nM; in [7] (Caco-2, CaCo-2 cells, time not given, read-out: IC50 value on CaCo-2 cells), 320 nM. The “MIC values for Gram-negative bacteria” value with Gram-negative bacteria is reported as “high MIC values”.

Take `CNC(C)C1CCC(N)C(OC2C(N)CC(N)C(OC3OCC(C)(O)C(NC)C3O)C2O)O1` (stereo not drawn) [Gentamicin, gentamicin, reference compound]: the “Reduction of antibiotic MIC by PB4” value with E. faecalis ATCC 29212 [1] (E. faecalis ATCC 29212, antibiotic + PB4 vs antibiotic alone) is listed as 2 -fold log reduction; in experiment [4] (K. pneumoniae ATCC 700603, antibiotic + PB4 vs antibiotic alone) it was 2 -fold log MIC reductions; in the experiment on P. aeruginosa ATCC 27853 [5] (P. aeruginosa ATCC 27853, antibiotic + PB4 vs antibiotic alone), 2 -fold log MIC reductions. Further, the MIC turned out to be 8 µg/mL (≈ 16.8 µM) with E. faecalis ATCC 29212 [1] (setting [13]); 4 µg/mL (≈ 8.38 µM) in the experiment on E. faecalis ATCC 29212 [1] (substance alone, read-out: MIC); 0.5 µg/mL (≈ 1.05 µM) in the experiment on S. aureus ATCC 29213 [2] (setting [13]); 0.5 µg/mL (≈ 1.05 µM) with S. aureus ATCC 29213 [2] (substance alone, read-out: MIC); 0.5 µg/mL (≈ 1.05 µM) in the experiment with S. aureus ATCC 12598; 0.5 µg/mL (≈ 1.05 µM) in experiment [3]. Moreover, the MIC in experiment [4] was 8 µg/mL (≈ 16.8 µM); in the experiment on A. baumannii ATCC 17978, 2 µg/mL (≈ 4.19 µM); in the experiment with P. aeruginosa ATCC 27853 [5] (setting [13]), 2 µg/mL (≈ 4.19 µM); with P. aeruginosa ATCC 27853 [5] (substance alone, read-out: MIC) it was 2 µg/mL (≈ 4.19 µM); in the experiment on S. enterica ATCC 14028 it was 1 µg/mL (≈ 2.09 µM); with E. coli ATCC 25922 [6] (ATCC25922, quality control strain, technical positive control, read-out: MIC (quality control)) it was 0.5 µg/mL (≈ 1.05 µM). Besides, in the experiment on E. coli ATCC 25922 [6] (setting [12]), the MIC came out at 0.5 µg/mL (≈ 1.05 µM). Moreover, the “Percentage of cell growth, antibiotic” value in experiment [7] (antibiotic alone at MIC for E. faecalis ATCC 29212, 24 h) amounted to 158.2%; in experiment [7] (antibiotic alone at MIC for E. faecalis ATCC 29212, 48 h), 247.5%; in [7] (antibiotic alone at sub-MIC (half-MIC), 24 h) it was 132.3%; in [7] (antibiotic alone at sub-MIC (half-MIC), 48 h) it was 271.7%. The “Percentage of cell growth, antibiotic + PB4 0.2 µM” value was 125.6% in experiment [7] (antibiotic at MIC + PB4 0.2 µM, 24 h); 141.1% in experiment [7] (antibiotic at MIC + PB4 0.2 µM, 48 h); 132.4% in experiment [7] (antibiotic at sub-MIC + PB4 0.2 µM, 24 h); 99.2% in experiment [7] (antibiotic at sub-MIC + PB4 0.2 µM, 48 h). Moreover, the “MIC CLSI Range” value in the experiment on E. faecalis ATCC 29212 [8] was 4 to 16 µg/mL; with S. aureus ATCC 29213 [9], 0.125 to 1 µg/mL; with P. aeruginosa ATCC 27853 [10] it was 0.5 to 2 µg/mL; in the experiment with E. coli ATCC 25922 [11], 0.25 to 1 µg/mL.
